Activity calls are given as the source filed them.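 How the source made its calls: active means compounds giving half or more protection of infected cells from virus-caused growth loss, again on retest; inactive means the rest.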 Where a SMILES comes first, the peptide text is derived from it. [ ]: non-standard residue; d: D form. The star is where a group is joined. Arg(NO2) = N=C(NCCC[CH](N)C(=O)O)N[N+](=O)[O-]; Cbz = O=C(OCc1ccccc1)*

The term EC50 denotes the midpoint of the concentration-response curve. By IC50 is commonly meant the concentration at which inhibition is half-maximal. Higher therefore signals a need for much substance.

The test deals with CEM cells HIV-1 protection, formazan growth assay. In words: NCI AIDS Antiviral Assay. The following applies: for IC50: measured here: growth of uninfected CEM cells. The gist of the method: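 Steps: treat uninfected and HIV-1-infected human CEM cells at five drug levels; quantify growth by soluble formazan; retest any compound reaching 50% protection; classify actives from the retest.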

`O=C(/C=C(\S/C=C(/c1ccccc1)N1CCn2c(C(=O)c3ccccc3)c(C(=O)c3ccccc3)c(C(=O)c3ccccc3)c21)C(=O)c1ccccc1)c1ccccc1`: the EC50 was greater than 200 µM and the IC50 came out at 37.2 µM.
The matching figures for `CCC(=O)C(C)C1=Nc2nnc(CCCCCCCc3nnc4n3C(=O)C(C(C)C(=O)CC)=N4)n2C1=O` (stereo not drawn): greater than 1.07 µM and greater than 1.07 µM.
The matching figures for `CN1C(=O)NC2(C1=O)C(=O)N(C)C(=O)N2C` (stereo not drawn): greater than 1100 µM and greater than 1100 µM.
For `COc1cccc2c1C(=O)c1c(O)c3c(c(O)c1C2=O)CC(O)(C(O)CO)CC3OC1CC(N2CCOCC2)C(O)C(C)O1` (stereo not drawn), in that order: greater than 0.2 µM and 0.00355 µM.
In the case of `COC(=O)C1CC(C(=O)OC)c2nc3cc(C)ccc3nc21` (stereo not drawn), the EC50 was greater than 437 µM and the half-inhibitory concentration (IC50) is greater than 437 µM.
Compound `C[C@@H](NC(=O)c1ccccc1SC(=O)OCC[n+]1ccccc1)C(N)=O` gave an EC50 of 2.82 µM and a half-maximal inhibitory concentration (IC50) greater than 200 µM.
The matching figures for `C[s+]1c2ccccc2c2ccccc21`: greater than 22.9 µM and 18.6 µM.
For the compound `CN(C)c1cc(CNCCS)nc(CNCCS)c1`, the EC50 was greater than 200 µM and the IC50 was determined as 3.47 µM.
For `COC(=O)C(CCCN=C(N)N[N+](=O)[O-])NC(=O)C(Cc1ccccc1)NC(=O)C1CCCN1C(=O)OCc1ccccc1` (stereo not drawn) (Cbz-Pro-Phe-[Arg(NO2)]-OMe; configuration not given here), in that order: greater than 112 µM and greater than 112 µM.
For `COc1ccc(/C=C(/C(C)=O)C(=O)c2ccccc2)cc1`, in that order: greater than 129 µM and 38 µM.
The matching figures for `CCCCCCCCCCCc1c2oc3ccccc3nc-2cc(Nc2ccccc2O)c1=O`: greater than 2.95 µM and greater than 2.95 µM.
Turning to `CO[C@@]12[C@@H]3N[C@@H]3CN1C1=C(C(=O)C(N3CCOCC3)=C(C)C1=O)[C@@H]2COC(N)=O`, the EC50 is greater than 200 µM and the concentration for half-maximal inhibition (IC50) was greater than 200 µM.
For the compound `N=C(N)/N=C(/C=C/c1ccccc1)CC1OC(=O)c2ccccc21` (stereo not drawn), the EC50 is greater than 42.7 µM and the 50% inhibitory concentration (IC50) was greater than 42.7 µM.
`Cc1ccc(S(=O)(=O)/N=C(\N)N(C)N=O)cc1`: the EC50 is greater than 200 µM and the IC50 was determined as 63.1 µM.
`COc1cc(/C=C/c2nc3ccccc3nc2/C=C/c2cc(OC)c(OC)c(OC)c2)cc(OC)c1OC`: the EC50 was greater than 7.41 µM and the IC50 is greater than 7.41 µM.
For the compound `COc1ccc(/C(CC2OC(=O)c3ccccc32)=N\NC(N)=O)cc1` (stereo not drawn), the EC50 is greater than 339 µM and the 50% inhibitory concentration (IC50) is greater than 339 µM.
`COc1ccc(NC(=O)CSc2nnc(-c3ccc(N=Cc4ccc(Cl)cc4)cc3)o2)cc1`: the EC50 is greater than 141 µM and the IC50 was determined as 31.6 µM.
Take `CC[C@@H]1NC(C(=O)OC)Cc2c1[nH]c1ccccc21` (stereo partly drawn): the outcome was inactive.
In the case of `CN(C)c1nc(N(C)C)nc(N(C)CN(C)c2ccccc2)n1`, the EC50 was greater than 100 µM and the concentration for half-maximal inhibition (IC50) was greater than 100 µM.
For the compound `O=C(c1ccc(Cl)cc1Cl)N(C(=O)N1CCC(c2ccccc2)CC1)c1ccccc1`, the EC50 was greater than 200 µM and the IC50 is greater than 200 µM.
With `S=C1N(c2ccc(Cl)cc2)C2=C(N=Nc3ccccc3Cl)C(=Nc3ccccc3S2)N1c1ccccn1`, the EC50 is greater than 46.8 µM and the IC50 came to 21.9 µM.
For `CCCn1c(SCCSc2c3ccccc3c(-c3nc(F)nc(F)n3)n2CCC)c2ccccc2c1-c1nc(F)nc(F)n1`, in that order: greater than 4.07 µM and 3.98 µM.
In the case of `COc1cc2c([C@@H](OC(=O)c3ccccc3)c3ccc4c(c3)OCO4)nccc2c(OC)c1OC`, the result was inactive.
`CC(=O)c1c(-c2ccco2)c(C#N)c(=S)n(C2OC(CO)C(O)C(O)C2O)c1C` (stereo not drawn): the EC50 is greater than 200 µM and the IC50 stood at 87.1 µM.
Regarding `NC(=O)CC[C@@H]1NC[C@H](C(O)C(O)C(O)CO)OC1=O` (stereo partly drawn), the EC50 was greater than 851 µM and the 50% inhibitory concentration (IC50) is greater than 851 µM.
In the case of `C[C@]12CC[C@@H]3c4ccc(OC(=O)N(CCCl)CCCl)cc4CC[C@H]3[C@@H]1CC[C@@H]2O`, the EC50 is greater than 200 µM and the IC50 came to 1.7 µM.
The matching figures for `O=C(O)c1ccc2cc(O)ccc2c1`: greater than 200 µM and greater than 200 µM.
For `N#Cc1c(Cl)c2cc([N+](=O)[O-])ccc2n2c1nc1ccccc12`, in that order: greater than 20 µM and 0.813 µM.
The matching figures for `COc1ccccc1C(C1=C(O)COC1=O)c1cc2c(cc1OC(C)=O)OCO2` (stereo not drawn): greater than 200 µM and greater than 200 µM.
`O=C1CN=C(c2ccccn2)c2cc(Cl)ccc2N1`: the EC50 was greater than 479 µM and the IC50 worked out at 72.4 µM.
Consider `CON(C)c1nc2ccccc2o1`, for which the EC50 was greater than 200 µM and the half-maximal inhibitory concentration (IC50) is 107 µM.
`CC12CCC[C@@](C)(C(=O)OC3OC(CO)C(O)C(O)C3O)[C@H]1CCC13CC4CC(OC4(CO)[C@H]1O)[C@@H]23` (stereo partly drawn): the outcome was inactive.
`COC(=O)CNC(=O)/C=C/[C@H](O[Si](C)(C)C(C)(C)C)[C@H](/C=C/C(=O)NCC(=O)OC)O[Si](C)(C)C(C)(C)C`: the EC50 was greater than 25.1 µM and the IC50 is greater than 25.1 µM.
With `Cc1ccc(Nc2nc3c(=O)n(C)c(=O)n(C)c3nc2Nc2ccc(C)cc2)cc1`, the EC50 is greater than 200 µM and the half-maximal inhibitory concentration (IC50) was 2.04 µM.
On to `COc1ccccc1C1(c2c(OC)c(=O)c2=O)SCCCS1`, for which the EC50 is greater than 200 µM and the half-inhibitory concentration (IC50) is greater than 200 µM.
As for `Cc1ccc2cccc(-c3cccc4ccccc34)c2n1`, the EC50 is greater than 200 µM and the IC50 was 10.5 µM.
Consider `O=C(Nc1cccc([N+](=O)[O-])c1)OCc1ccc2c(c1)OCO2`, for which the outcome was inactive.
Regarding `Clc1ccc2c(c1)Sc1ccc(Cl)cc1S2`, the EC50 was greater than 200 µM and the IC50 is greater than 200 µM.
Regarding `COC(=O)C1=C2c3ccccc3-c3ccccc3C2(O)C(C(=O)OC)C1=O` (stereo not drawn), the EC50 is greater than 1.45 µM and the half-maximal inhibitory concentration (IC50) is greater than 1.45 µM.
`N#CCc1nc(C#N)c(N)o1`: the EC50 was 51.3 µM and the half-inhibitory concentration (IC50) is greater than 200 µM.
Consider `COc1ccc(/C=C/c2nc(=S)[nH][nH]2)cc1OC`, for which the EC50 is greater than 135 µM and the IC50 amounted to 110 µM.
The matching figures for `COc1ccc(NC(=O)/C(=C/c2ccc(N(CCC#N)CCC#N)cc2)NC(=O)c2cc([N+](=O)[O-])ccc2Cl)cc1`: greater than 23.4 µM and greater than 23.4 µM.
`NNC(=O)CC(=O)Nc1ccccc1F`: the EC50 was greater than 1170 µM and the IC50 is 871 µM.
The matching figures for `N=S(c1ccccc1)c1ccccc1[N+](=O)[O-]` (stereo not drawn): greater than 158 µM and 1.7 µM.
Turning to `Oc1ccc(O)c(-n2cccn2)c1-n1cccn1`, the concentration giving a half-maximal response (EC50) is greater than 110 µM and the IC50 worked out at 42.7 µM.
The matching figures for `COc1cc2c(c3c1[C@H](O)[C@H](C)[C@@H](C)O3)C=CC(C)(C)O2`: greater than 200 µM and 81.3 µM.
The matching figures for `COC1=Nc2ccccc2S(=O)(=O)C=C1`: greater than 398 µM and 0.813 µM.
For `Cn1c(=O)c2nc3c(=O)n(C)c(=O)n(CC(N)=O)c3nc2n(C)c1=O`, in that order: greater than 200 µM and greater than 200 µM.
Turning to `CC1(C)Oc2ccc(C3=NO[C@@H]4C(=O)N(c5ccc(Cc6ccc(N7C(=O)[C@H]8C(c9ccc%10c(c9)OC(C)(C)O%10)=NO[C@H]8C7=O)cc6)cc5)C(=O)[C@H]34)cc2O1`, the EC50 is greater than 91.2 µM and the IC50 is greater than 91.2 µM.
For the compound `Cc1cc(C)c2c(c1)CC1(Cc3cc(C)c(C)cc3C1=O)C2=O` (stereo not drawn), the EC50 is greater than 100 µM and the IC50 is greater than 100 µM.
Consider `CCN(CC)CC(O)CNc1c2ccc([N+](=O)[O-])cc2nc2cc(OC)c(OC)cc12` (stereo not drawn), for which the outcome was inactive.
In the case of `Sc1ccc(Nc2c3ccccc3nc3ccccc23)cc1`, the EC50 is greater than 200 µM and the IC50 is 14.5 µM.
For `O=C1/C(=C\c2ccc([N+](=O)[O-])cc2)CS(=O)(=O)C/C1=C/c1ccc([N+](=O)[O-])cc1`, in that order: greater than 0.2 µM and 0.0309 µM.
For `Cc1cc(N(CCCl)CCCl)ccc1N=Nc1ccccc1`, in that order: greater than 200 µM and 19.5 µM.
For `O=C(O)c1ccc2c(c1C(=O)O)C(=O)c1ccccc1C2=O`, in that order: greater than 200 µM and greater than 200 µM.
As to `CN1CCN(c2[nH]c(=O)n(Cc3ccccc3)c(=S)c2C#N)CC1`, the EC50 was greater than 200 µM and the half-inhibitory concentration (IC50) is greater than 200 µM.
Take `C=C1C=CN(C(C)=O)C(OC(C)=O)C1SC(C)(C)C` (stereo not drawn): the EC50 is greater than 200 µM and the IC50 was found to be 57.5 µM.
The matching figures for `CC(=O)OC1[C@@H](OC(C)=O)CN(OCc2ccccc2)C[C@H]1OC(C)=O` (stereo partly drawn): greater than 200 µM and greater than 200 µM.
For `COc1cc2oc(=O)cc(C)c2cc1OC`, in that order: greater than 200 µM and greater than 200 µM.
The matching figures for `COC(=O)N(C[C@@H]1C=CCCC1)c1ccccc1I`: greater than 14.1 µM and greater than 14.1 µM.
In the case of `CCOC(O)(NC(=O)C(C(F)(F)F)C(F)(F)F)C(F)(F)F` (stereo not drawn), the EC50 was greater than 200 µM and the 50% inhibitory concentration (IC50) was greater than 200 µM.
Consider `COC(=O)C1=C(C)C=C(N2CCOCC2)C(C(=O)OC)C1c1ccccc1` (stereo not drawn), for which the EC50 was greater than 200 µM and the half-inhibitory concentration (IC50) was greater than 200 µM.
As to `COC(=O)c1ccc(NCc2cc(O)c3ccccc3c2O)cc1`, the EC50 was greater than 200 µM and the half-maximal inhibitory concentration (IC50) worked out at 3.02 µM.
`CC(C)=CC1CC(n2cc(C)c(=O)[nH]c2=O)ON1CCO[Si](C)(C)C(C)(C)C` (stereo not drawn): the result was inactive.
On to `Cn1c(=O)c2c(nc3sc4ncccc4c(=O)n32)n(C)c1=O`, for which the EC50 was greater than 151 µM and the IC50 was greater than 151 µM.
Take `COC(=O)[C@@]1(C)C(=O)CC[C@@H]1C=O`: the EC50 is greater than 251 µM and the IC50 was found to be 50.1 µM.
As to `COC(OC)c1cc2c(cc1C=O)OCO2`, the outcome was inactive.
With `C=CCC1(c2ccccc2)Oc2ccccc2-n2cccc2C1=O` (stereo not drawn), the EC50 was 7.08 µM and the IC50 is 10.5 µM.
Consider `Oc1ccc(Cl)cc1Cc1ccccc1`, for which the EC50 is greater than 200 µM and the IC50 came out at 39.8 µM.
For `CN1C(=O)N(C)C(O)C(Cl)(Br)C1=O` (stereo not drawn), in that order: greater than 200 µM and greater than 200 µM.

(Values after PubChem BioAssay AID179 (DTP/NCI, 2004).)
